“Also recorded” adds a separate entry of the source.
Assays:
adult patients with PSC = settings: cited from earlier work
patients with NASH [1] = settings: two years, 13-15 mg/kg/day; cited from earlier work
NASH patients = settings: one year, 13-15 mg/kg/day; cited from earlier work
[2] = tested on: patients with histologically proven NASH; assay: Multicenter randomized double-blind placebo-controlled clinical study of 28-35 mg/kg/day UDCA for treating NASH; type: in vivo, human; settings: for Normalization ALAT: percent pts with normalized ALAT at 12 months; for Normalization ASAT: percent pts with normalized ASAT at 12 months
Procedure: A multicenter randomized double-blind placebo-controlled study was conducted to examine the efficacy and tolerability of 28-35 mg/kg/day UDCA in patients with histologically proven NASH, ALAT and/or ASAT greater than 50 IU/L. A total of 120 patients were planned to receive either UDCA or placebo for a period of 12 months. Treatment was administered with meals. During the study, liver biochemistry, tolerability and side effects were monitored regularly. During the study, overweight and obese patients were encouraged to lose weight by following a hypocaloric diet and to maintain a certain level of physical activity. Drug treatments taken by patients for associated medical conditions were allowed. At the end of the 12th month, patients underwent an end of study evaluation and study treatments were stopped.
Inclusion criteria: age of patients higher than 18 years; liver biopsy compatible with NASH: presence of steatosis >20% associated with hepatocyte ballooning and/or hepatic lobule necrosis during the last 18 months; ALAT or ASAT levels >50 IU/L at the screening visit (with at least 3 elevated transaminase levels in the last 12 months)
Exclusion criteria: hepatic biopsy done before the last 18 months; no more than one normal value of transaminases during the last 12 months; patient was treated by UDCA during the last 12 months; loss of weight of more than 15% between the time of the hepatic biopsy and the screening; alcohol consumption higher than 20 g/day for women or higher than 30 g/day for men; presence of other causes of hepatitis such as chronic hepatitis B or C, increased serum ferritin associated with homozygosity for the C282Y mutation, primary biliary cirrhosis, primary sclerosing cholangitis, well documented autoimmune hepatitis (specific autoantibody, hpergammaglobulinaemia, histology-compatible), alpha-1 anti-trypsin deficiency, Wilson's disease, HIV infection; secondary causes of NASH: long term amiodarone-induced NASH, corticotherapy, obesity surgery within the last 2 years, Tamoxifen® treatment; Child's B or Child's C grade cirrhosis; presence of liver carcinoma; currently treated or treated during the past three years of hepatic biopsy with rosilitazone or pioglitazone; treatment with vitamin E during the past six months before screening; pregnant or breastfeeding women; unavailable histology slides for reading by the central laboratory.
Discontinuation criteria: Subjects were free to discontinue the study at any time for any or for no reason, and without prejudice to further treatment. Patients who withdrew subsequent to the pre-study evaluations but before receiving any study medication were not considered dropouts and were not included in the database. Patients who were included in the study and received at least one dose of study medication were included in the database and considered part of the safety population. Patients who were included in the study and received a dose of study medication and for whom at least one post-baseline evaluation was available were analyzed as part of the Intent-to-Treat (ITT) population. Patients from the ITT population who completed the study without any major protocol violations were analyzed as part of the Per Protocol (PP) population.
Main Endpoints: The primary endpoint was percent change in ALAT at 12 months vs. baseline. The secondary endpoints included: percent change in ASAT at 12 months vs. baseline; percent change Gamma-GT at 12 months vs. baseline; percent pts with normalized ALAT at 12 months; percent pts with normalized ASAT at 12 months; change in fibrosis index (FibroTest); change in inflammation index (Actitest); change in metabolic syndrome markers; and safety.
FibroTest is a non-invasive blood test that provides a quantitative estimate of liver fibrosis and can be used to predict advanced fibrosis. ActiTest is a non-invasive blood test that is used to assess the activity of liver disease by measuring the degree of necrosis and inflammation. […]

patients with NASH [3] = settings: 15 mg/kg/day; cited from earlier work
[4] = cited from earlier work
[5] = by the end of the study, n=76, 28-30 mg/kg/day
[6] = 28-35 mg/kg/day UDCA in NASH patients
[7] = mean change at 12 months vs. baseline, ITT, 30 mg/kg/day

C[C@H](CCC(=O)O)[C@H]1CC[C@H]2[C@@H]3[C@@H](O)C[C@@H]4C[C@H](O)CC[C@]4(C)[C@H]3CC[C@]12C [UDCA, 3α, 7β-dihydroxy-5β-cholan-24-oic acid]
Risk of a primary endpoint versus placebo (adult patients with PSC; adjusted for baseline stratification characteristics (p=0.011)): 2.2 times
Patients who had reached one of the pre-established clinical endpoints (number) (adult patients with PSC; [5]): 28 patients
Patients who had reached one of the pre-established clinical endpoints (percent) (adult patients with PSC; [5]): 37%
Amount of decrease of ASAT and AP levels versus placebo (adult patients with PSC; during therapy (p<0.01)): greater
Adjusted relative risk for death or transplantation (adult patients with PSC; versus placebo (p=0.029)): 3.3
Serious adverse events (adult patients with PSC; vs. 43% placebo, p=0.03): 61%
Efficacy, UDCA treatment group versus placebo group (patients with NASH [1]): did not show any differences
Fibrosis or inflammation (NASH patients): did not change
Liver enzyme and steatosis levels (NASH patients): improved
Asthenia and RUQP [2, 6]: symptomatic improvement
Safety [2, 6]: without any significant safety concerns
ActiTest (effect on liver inflammation) change vs. baseline, Mean ([2]; ITT, at 6 months): −31.41%
FibroTest (effect on fibrosis) change vs. baseline, Mean ([2]; ITT, at 6 months): −9.15%
ActiTest (effect on liver inflammation) change vs. baseline, Mean ([2]; ITT, at 12 months): −30.97%
FibroTest (effect on fibrosis) change vs. baseline, Mean ([2]; ITT, at 12 months): −8.11%
ActiTest (effect on liver inflammation) change vs. baseline, Mean ([2]; PP, at 6 months): −31.23%
FibroTest (effect on fibrosis) change vs. baseline, Mean ([2]; PP, at 6 months): −9.68%
ActiTest (effect on liver inflammation) change vs. baseline, Mean ([2]; PP, at 12 months): −27.33%
FibroTest (effect on fibrosis) change vs. baseline, Mean ([2]; PP, at 12 months): −5.40%
GI symptoms (diarrhea, abdominal pain, motility problems) frequency versus placebo group ([2]; UDCA treatment group vs placebo group): −3 ×
Glycemia ([2]; UDCA treatment group, increased in placebo group (p=0.023)): remained stable
HbA1c versus placebo ([2]; at 6 and 12 months (p<0.05)): lower
Insulinemia versus placebo ([2]; at 12 months (p=0.038)): lower
Fibrosis levels compared to placebo group ([2]; both ITT and PP populations): significant improvement
Liver inflammation levels compared to placebo group ([2]; both ITT and PP populations): significant improvement
Mild diarrhea, abdominal pain, and gastrointestinal motility disorders versus placebo group ([2]; human, in vivo): more
Time of maximum effect, percent change from baseline ALAT ([2]; human, in vivo): 3 months
Time of maximum effect, percent change from baseline ASAT ([2]; human, in vivo): 3 months
Time of maximum effect, percent change from baseline in Gamma-GT ([2]; human, in vivo): 6 months
Δ % ALAT (SD) [2, 7]: −28±55%
Δ % ASAT (SD) [2, 7]: −8±59%
Δ % Gamma-GT (SD) [2, 7]: −51±28%
Individual effect on fibrosis: Fibrosis Decreased ([2]; percent of patients): 35.7%
Individual effect on fibrosis: Fibrosis Increased ([2]; percent of patients): 8.9%
Individual effect on fibrosis: Fibrosis Stable ([2]; percent of patients): 55.4%
Normalization ALAT ([2]; ITT): 25%
Normalization ALAT ([2]; PPP): 29%
Normalization ASAT ([2]; ITT): 32%
Normalization ASAT ([2]; PPP): 36%
ALAT and Gamma-GT levels (patients with NASH [3]): significant reduction
Steatosis, necroinflammation, or fibrosis (patients with NASH [3]): no improvements
Solubility in chloroform ([4]; chloroform): slightly soluble
Solubility in ethanol ([4]; ethanol): freely soluble
Solubility in ether ([4]; ether): sparingly soluble
Solubility in glacial acetic acid ([4]; glacial acetic acid): freely soluble
Solubility in intestinal fluids ([4]; intestinal fluids, compared with water): more soluble
Solubility in water ([4]; water): virtually insoluble; also recorded: practically insoluble

Source: US20120071451A1, “METHOD OF TREATING NONALCOHOLIC STEATOHEPATITIS WITH ELEVATED DOSES OF URSODEOXYCHOLIC ACID” (Aptalis Pharma Canada Inc., priority 2009, published 2012)
